Patent US8883849B2, “Treatment of sleep disturbances” (Wyeth LLC, priority 2001, dated 2014)
Entries after “also recorded” stand apart in the source; their conditions may differ. Where two headings read alike, the source gives them in different places. Marks after values point to notes of the source that are not given here.

Key:
[1] = Interaction and stability testing of ibuprofen and diphenhydramine in one composition; type: physicochemical; details: dissolution, appearance, potency
Text: An ion pair or salt could, thus, be formed. Such an interaction creates a more nonpolar composition, which may have different dissolution characteristics and absorption profile in the body. Such changes in a pharmaceutical composition may be highly undesirable, due to unpredictability of effect.

[2] = tested on: patients evaluated for sleep disturbances after oral surgery; experiment: Study A: single dose after oral surgery, ibuprofen, diphenhydramine and combination vs placebo; type: in vivo, human; details: diphenhydramine HCl 50 mg; for Duration of Sleep: 6-point categorical scale 0 (≦5 hours) to 5 (≧9 hours); for Global Evaluation: global evaluation of sleep, 5-point categorical scale; for Cumulative % Asleep at 60 minutes: nurse graded; for Sleep Latency (median): nurse observed, single dose ibuprofen 400 mg; for Time to Rescue (median): nurse recorded; for SPRID3: time-weighted sum of pain relief and pain intensity differences over 0-3 hours
Text: A single center, inpatient, single dose, randomized (stratified by gender and baseline pain severity), double blind, double dummy, parallel group placebo controlled study was used.
In a double dummy scenario, patients are given multiple dosage forms, one study medication for the group in which they are assigned, and placebos resembling the dosage forms for the other study groups. […] The combination was in a soft gelatin capsule formulation.
The art recognizes that patient-assessed duration of sleep is a very good indicator of the amount of sleep received by the patient. If patients requested rescue medication within an hour of receiving treatment, they were considered protocol violators and removed from the study.
The SPRID3 calculation was as follows. AT 90 minutes, 2 hours, and 3 hours, the patients were woken and asked two questions: how much relief of pain have you had? (no relief=0, a little=1, some=2, a lot=3, complete=4) and what is the severity of your pain? (none=0, mild=1, moderate=2, severe=3). Pain intensity difference (PID) was determined by subtracting the severity of pain score at the time in question to the baseline score measured before treatment. The pain relief rating (PPR) was then added to the PID for a PRID score. The PRID scores were plotted on a graph over time for each patient, and the SPRID3 score was read as the area under the curve for each patient's PRID plot. SPRID3 is a combination measurement of pain relief and pain severity.
In this model, only one hour of phase shifting sleeplessness was induced, compared to three hours in subsequent studies. In other words, patients were required to go to sleep one hour earlier than their bedtime.

[3] = tested on: subjects of the partial factorial studies (pain after oral surgery); experiment: Pooled data of studies AE-98-01/02; type: in vivo, human; details: for % who required remed.: Pooled Studies AE-98-01/02
Text: Data from two of the studies were pooled together. Some of the most significant study data are presented in Table 7, with graphical representations of the data in FIGS. 28-29.

[4] = tested on: patients with pain following oral surgery, bedtime 3 hours early; experiment: Study B (AE-98-01): ibuprofen/diphenhydramine combination vs ibuprofen alone and placebo after oral surgery; type: in vivo, human
Method: This study was conducted in a similar manner to Example 1.
The placebo group also received soft gelatin capsules.
The trial was conducted as a randomized, stratified (by baseline pain and gender), inpatient, placebo controlled, partial factorial, single dose, double blind, parallel group, single center trial. Following oral surgery, patients were kept at the clinic site overnight. Study medications were dispenses when patients experienced pain at a moderate level or greater, and when it was between about 6:30 and 8:00 p.m. (3 hours prior to the patient's usual bedtime). Patients were required to go to sleep after receiving study medication.
The same sleep parameters were used as in Example 1. Additionally, global assessment as a pain reliever was determined. This parameter was a patient-assessed parameter made at the time of rescue medication, if needed, or in the morning, if no rescue medication. Pain relief was assessed on a five-point scale (0=poor, 1=fair, 2=good, 3=very good, 4=excellent). Sleep was monitored by an observer at regular intervals over 3 hours post-dosing. Patients provided pain assessments at 90 and 120 minutes post-dosing. Patients also provided subjective assessments of sleep efficacy, global assessments of sleep and pain the next morning or at the time rescue medication was used.
The following statistical methods were used. All analyses were done using SAS® Version 6.12. Subjective sleep and pain assessments were analyzed by analysis of variance (ANOVA), incorporating effects for treatment, baseline pain severity rating (PSR), and gender in the model. In addition, the interactions of treatment-by-baseline PSR and treatment-by-gender were assessed (at the 0.15 level) in separate models, by adding interaction terms, one at a time, to the initial ANOVA model. The distributions of sleep latency and time to rescue medication were assessed using the Kaplan-Meier estimates, and the variables were analyzed using the Cox proportional hazards regression model with treatment, baseline PSR and gender effects. In addition, the interactions of treatment-by-baseline PSR and treatment-by-gender were assessed (at the 0.15 level) in separate models by adding each interaction term, one at a time, to the initial model.
If each interaction was generally significant (p≦0.15), it was retained in the final model. In the assessment of treatment effects in the presence of interactions, each level of the stratifying variable were to be weighted equally (consistent with the ANOVA models). Ninety-five percent confidence intervals for the median time to sleep and median time to rescue medication were derived. In addition, the actual and cumulative proportion of subjects asleep at each observation time point and the cumulative proportion of subjects who took rescue medication by each observation time point were analyzed by the Cochran-Mantel-Haenszel test controlling for baseline PSR and gender.
In order to protect the Type I error at the 0.05 level, comparisons were tested in sequential order. Each step had to be significant for the subsequent steps to be eligible for significance.
The secondary end points were assessed at the 0.05 level of significance, in the same sequential order.
The primary analysis of efficacy was conducted on the intent-to-treat population, which included all randomized subjects who took the study medication and had at least one post-baseline (sleep and pain) efficacy assessment.

[5] = tested on: normal sleep patterns in humans; details: cited from earlier work
[6] = tested on: subjects with pain following oral surgery, bedtime at least 3 hours early; experiment: Study C (AE-98-02): ibuprofen/diphenhydramine combination vs ibuprofen alone after oral surgery; type: in vivo, human
Method: This was a randomized stratified (by baseline pain and gender), inpatient, placebo-controlled, partial-factorial, single-dose, double-blind, parallel group, single-center trial. Following oral surgery, subjects were housed and observed at a clinic site overnight. When subjects experienced at least moderate pain and it was between approximately 6:30 PM and 8:00 PM (at least 3 hours earlier than their usual bedtime), they received study medication and were required to go to bed for the evening. Sleep was evaluated by an observer at regular intervals over 3 hours post-dosing. […] Subjects also provided subjective assessments of sleep efficacy as well as global assessments of the study medication as a sleep-aid and as an analgesic the next morning (or at the time rescue medication was used).
The patients were assessed for duration of sleep, cumulative percent of subjects asleep at 60 minutes post-dosing (based on observed sleep latency assessments). they were also assessed for pain using SPRID2 (time-weighted sum of pain relief and pain intensity differences from baseline over 0-2 hours). Sleep latency (observer based), ease of falling asleep, and global evaluation of sleep were also used.
Cumulative percent of subjects asleep by 60 minutes was analyzed by the Cochran-Mantel-Haenszel test controlling for baseline PSR and gender. Subjective sleep and pain assessments were analyzed by analysis of variance (ANOVA), incorporating effects for treatment, baseline pain severity rating (PSR), and gender in the model. The distributions of sleep latency and time to rescue medication were assessed using the Kaplan-Meier estimates, and the variables were analyzed using the Cox proportional hazards (PH) regression model with treatment, baseline PSR, and gender effects. For both ANOVA and PH models, the interactions of treatment-by-baseline PSR and treatment-by-gender were assessed (at the 0.15 level) in separate models by adding each interaction term, one at a time, to the initial model. If each interaction was generally significant (p≦0.15), it was retained in the final model. In the assessment of treatment effects in the presence of interactions, each level of the stratifying variable was to be weighted equally.
In order to protect the Type I error at the 0.05 level, comparisons were tested in sequential order for the primary as well as the secondary efficacy endpoints. Each step had to be significant for the subsequent steps to be eligible for significance. […] The secondary end points were assessed, at the 0.05 level of significance, in a similar sequential order. The primary analysis of efficacy was based on the intent-to-treat (ITT) population, which included all randomized subjects who took study medication and had at least one post-baseline (sleep and pain) efficacy assessment.

[7] = oral administration, cited from earlier work
[8] = Study B, 5-point scale 0=poor to 4=excellent, IBU 400 mg, DPH 50 mg
[9] = Study C, 5-point scale 0=poor to 4=excellent, IBU 400 mg, DPH 50 mg

CN(C)CCOC(c1ccccc1)c1ccccc1 [DPH, 2-(diphenylmethoxy)-N,N-dimethylethylamine]
interaction between ibuprofen and diphenhydramine in the composition [1]: much more prone to interaction than the citrate form
Duration of Sleep ([2]; ibuprofen 400 mg): 0.23 A
Global Evaluation ([2]; ibuprofen 400 mg): 0.77 A
% Requiring Rescue ([2]; ibuprofen 400 mg): 97% B
Cumulative % Asleep at 60 minutes ([2]; ibuprofen 400 mg): 61.3 A %
Sleep Latency (median) [2]: 51.3 A
Time to Rescue (median) ([2]; ibuprofen 400 mg): 2.04 A hours
SPRID3 ([2]; ibuprofen 400 mg): 1.8 A

CC(C)Cc1ccc(C(C)C(=O)O)cc1 (centres unmarked) [IBU, Ibuprofen]
% who required remed. [3]: (45%)
% who required remed. ([3]; listed as ibuprofen): 45%
Time to Remed. ([3]; Table 7, Pooled Studies AE-98-01/02): >12.0 B hrs.
Duration of Sleep ([3]; Table 7, Pooled Studies AE-98-01/02, 6-point scale): 2.12 B
Global Eval - Sleep-Aid ([3]; Table 7, pooled studies, 5-point scale 0-Poor to 4 = Excellent): 1.60 B
subjects who slept for less than 5 hours ([3]; pooled data): 32%
Ease of Falling Asleep - mean ([4]; Study B, 5-point scale 0-4, IBU 400 mg, DPH 50 mg): 1.81*
Global Assessment as a Pain Reliever [4, 8]: 2.30*
Global Assessment as a Sleep-Aid [4, 8]: 1.63*
Duration of Sleep - mean ([4]; Study B, 6-point categorical scale, IBU 400 mg, DPH 50 mg): 2.26*
PRID 90 minutes ([4]; Study B, 90 minutes post-dosing, IBU 400 mg, DPH 50 mg): 3.72*
PRID 120 minutes ([4]; Study B, 120 minutes post-dosing, IBU 400 mg, DPH 50 mg): 4.09*
% Requiring Rescue Medication for Any Reason ([4]; Study B, IBU 400 mg, DPH 50 mg): 48.3* %
SPRID2 ([4]; Study B, IBU 400 mg, DPH 50 mg): 7.63*
Sleep Latency (Observed) - median ([4]; Study B, IBU 400 mg, DPH 50 mg): 44.0* minutes
Time to Rescue Medication for Any Reason ([4]; Study B, IBU 400 mg, DPH 50 mg): >12* hours
Cumulative % Asleep at 60 minutes ([4]; Study B, IBU 400 mg, DPH 50 mg, soft gelatin capsules): 64.4^† %
% who required remed. ([4]; Table 7, Study AE-98-01): (48%)
Time to Remed. ([4]; Table 7, Study AE-98-01): >12.0 B hrs.
Global Eval - Sleep-Aid ([4]; Table 7, Study AE-98-01, 5-point scale 0-Poor to 4 = Excellent): 1.63 B
Duration of Sleep ([4]; Table 7, Study AE-98-01, 6-point scale 0 = <5 hrs to 5 = >9 hrs): 2.26 B
effect on sleep (Gengo 1996) ([5]; healthy adults): no impact on sleep
effect on sleep (Murphy et al. 1994) ([5]; patients not suffering from pain): increase the number of awakenings and percentage of time spent in stage wake, and decrease sleep efficiency; also recorded: delay the onset of deeper stages of sleep
Ease of Falling Asleep ([6]; Study C, 5-point scale 0-4, IBU 400 mg, DPH 50 mg): 1.89^†
Global Assessment as a Pain Reliever [6, 9]: 2.51^†
Global Assessment as a Sleep-Aid [6, 9]: 1.57^†
Duration of Sleep ([6]; Study C, 6-point categorical scale, IBU 400 mg, DPH 50 mg, soft gelatin capsules): 1.98^†
PRID 90 minutes ([6]; Study C, 90 minutes post-dosing, IBU 400 mg, DPH 50 mg): 3.83^†,§
PRID 120 minutes ([6]; Study C, 120 minutes post-dosing, IBU 400 mg, DPH 50 mg): 4.13^†
% Requiring Rescue Medication for Any Reason ([6]; Study C, IBU 400 mg, DPH 50 mg): 42.3^† %
Cumulative % Asleep at 60 minutes ([6]; Study C, IBU 400 mg, DPH 50 mg): 75.6^† %
Time to Rescue Medication for Any Reason ([6]; Study C, IBU 400 mg, DPH 50 mg): >12^† hours
SPRID2 ([6]; Study C, over 0-2 hours, IBU 400 mg, DPH 50 mg): 7.81^†,§
% who required remed. ([6]; Table 7, Study AE-98-02): (42%)
Time to Remed. ([6]; Table 7, Study AE-98-02): >12.0 B hrs.
Global Eval - Sleep-Aid ([6]; Table 7, Study AE-98-02, 5-point scale 0-Poor to 4 = Excellent): 1.57 B
Duration of Sleep ([6]; Table 7, Study AE-98-02, 6-point scale 0 = <5 hrs to 5 = >9 hrs): 1.98 B
time to peak serum concentrations ([7]; suspensions): ≤ 1 h
time to peak serum concentrations ([7]; tablets): ≤ 2 h
Ease of Falling Asleep ([2]; 5-point scale 0=did not fall asleep to 4=very easy, ibuprofen 400 mg): 2.10 B
Duration of Sleep ([2]; ibuprofen 400 mg): 2.68 B
Global Evaluation ([2]; ibuprofen 400 mg): 1.84 B
% Requiring Rescue ([2]; ibuprofen 400 mg): 45% B
Cumulative % Asleep at 60 minutes ([2]; ibuprofen 400 mg): 77.4 AB %
Sleep Latency (median) [2]: 25 min
Sleep Latency (median) ([2]; listed as ibuprofen): significantly better than the diphenhydramine and placebo groups
Time to Rescue (median) ([2]; ibuprofen 400 mg): >10 B hours
SPRID3 ([2]; ibuprofen 400 mg): 13.7 B
